Data: patent publication US20200338045A1, “ISOINDOLINE COMPOSITIONS AND METHODS FOR TREATING NEURODEGENERATIVE DISEASE” (priority 2017, published 2020)
Entries after “also recorded” stand apart in the source; their conditions may differ.

Key:
[1] = system: hippocampal/cortical cultures; assay: Neurogranin expression study in vitro; assay type: cell-based; details: Aβ42 oligomers 500 nM 1 hr, then CT1812 4.8 nM 24 hr; 21 DIV cultures
Method: Neurons were fixed in 3.75% formaldehyde and stained with full-length neurogranin (Abcam catalogue # ab23570, used in combination with novel Ng7 to detect full length neurogranin in Alzheimer's disease patient brain IP; Kvartsberg et al. 2015 Blennow lab), MAP2 (Millipore), and 4G8 (Biolegend) antibodies. Imaging was performed on Cellomics VX automated microscope with a 20×, 0.75 NA objective and analyzed using a compartmental analysis algorithm to measure staining in the nucleus versus cytoplasm.

[2] = Phase 1 MAD CSF concentration of CT1812; assay type: in vivo, human; details: for receptor occupancy associated with CSF CT1812 levels: extrapolated from transgenic mouse brain; for concentration at 1.5 h: human, cerebrospinal fluid, oral, 1.5 hr post dose, Day 7 to Day 9
Excerpt: CT1812 was quantitated in CSF using a validated LC-MS/MS method.

[3] = Phase 1 MAD safety (adverse events, laboratory, ECG); assay type: in vivo, human
Method: In Part B, healthy young subjects in each cohort received the same dose once daily for 14 days after overnight fasting. Cohort dosing started at 280 mg, followed by 560 mg and 840 mg in subsequent cohorts. In each cohort, eight subjects received drug and two received placebo. A fourth cohort of healthy elderly subjects (≥65 years old) received a 560 mg dose vs. placebo daily for 14 days (seven active, two placebo).
Subjects were dosed in the morning with 240 mL of water after an 8-hour fast, and remained in a semi-reclined position for 1 hour and fasting for 2 hours post-administration, except for the fed cohort in Part A. Subjects in each MAD cohort were confined to the clinical facility from check-in on Day 0 until the pharmacokinetic sample was collected on Day 16, 48 hours after administration of the last dose on Day 14. Subjects returned to the clinical facility for follow-up visits on Days 24 and 35.
Safety variables, including incidence of adverse events (AEs), vital signs, clinical laboratory findings, 12-lead electrocardiographs (ECGs), physical examination, and affective and cognitive measures (Part B only), were summarized for all subjects who received study drug.

[4] = system: Aβ oligomers bound to neuronal receptors; assay: Aβ oligomer binding to / displacement from neuronal receptors; assay type: cell-based
[5] = MAD, 280 mg, Age ≤64 yrs (n = 8)
[6] = MAD, 560 mg, Age ≤64 yrs (n = 8)
[7] = MAD, 560 mg, Age ≥65 years (n = 7)
[8] = MAD, 840 mg, Age ≤64 yrs (n = 8)

SMILES: CC(C)(C)Oc1cc(CCC(C)(C)N2Cc3ccc(S(C)(=O)=O)cc3C2)ccc1O [CT1812]
- full length neurogranin protein expression in neurons [1]: restores neurogranin expression
- receptor occupancy associated with CSF CT1812 levels ([2]; 560 mg dose): 95%
- projected receptor occupancy at average CSF concentrations ([2]; 560 mg-840 mg dose range, 1.5 hr post-dose, equivalent mouse brain concentration): 97-98%
- receptor occupancy associated with CSF CT1812 levels ([2]; 840 mg dose): 98%
- CSF CT1812 concentration vs dose ([2]; MAD 560 and 840 mg, at peak plasma concentrations): dose-dependent manner; also recorded: dose-dependent increases
- blood-brain barrier penetration in humans ([2]; from CT1812 levels in CSF): penetrates the blood-brain barrier
- concentration at 1.5 h ([2]; 560 mg daily): 8 ng/mL
- concentration at 1.5 h ([2]; 840 mg daily): 23.3 ng/mL
- vomiting incidence ([3]; 840 mg dose, two instances): 25%
- serious AE (SAE) ([3]; 840 mg, respiratory picornavirus infection deemed unrelated to study treatment): One serious AE
- tolerability, multiple dose ([3]; 280 to 840 mg QD 14 days (young), 560 mg (elderly)): safe and well tolerated
- ECG parameters or changes ([3]; MAD): No ECG parameters or changes were assessed as clinically significant
- Number of Subjects with at least one Treatment-Emergent AE: All TEAEs [3, 5]: 7
- Number of Subjects with at least one Treatment-Emergent AE: Dizziness [3, 5]: 1
- Number of Subjects with at least one Treatment-Emergent AE: Dyspepsia [3, 5]: 1
- Number of Subjects with at least one Treatment-Emergent AE: Headache [3, 5]: 2
- Number of Subjects with at least one Treatment-Emergent AE: Nausea [3, 5]: 1
- Number of Subjects with at least one Treatment-Emergent AE: Upper respiratory tract infection [3, 5]: 5
- Subjects (%) with at least one Treatment-Emergent AE: All TEAEs [3, 5]: (88%)
- Subjects (%) with at least one Treatment-Emergent AE: Dizziness [3, 5]: (13%)
- Subjects (%) with at least one Treatment-Emergent AE: Dyspepsia [3, 5]: (13%)
- Subjects (%) with at least one Treatment-Emergent AE: Headache [3, 5]: (25%)
- Subjects (%) with at least one Treatment-Emergent AE: Nausea [3, 5]: (13%)
- Subjects (%) with at least one Treatment-Emergent AE: Upper respiratory tract infection [3, 5]: (63%)
- Number of Subjects with at least one Treatment-Emergent AE: All TEAEs [3, 6]: 7
- Number of Subjects with at least one Treatment-Emergent AE: Catheter site phlebitis [3, 6]: 1
- Number of Subjects with at least one Treatment-Emergent AE: Dyspepsia [3, 6]: 1
- Number of Subjects with at least one Treatment-Emergent AE: Headache [3, 6]: 1
- Number of Subjects with at least one Treatment-Emergent AE: Procedural pain [3, 6]: 4
- Number of Subjects with at least one Treatment-Emergent AE: Upper respiratory tract infection [3, 6]: 1
- Subjects (%) with at least one Treatment-Emergent AE: All TEAEs [3, 6]: (88%)
- Subjects (%) with at least one Treatment-Emergent AE: Catheter site phlebitis [3, 6]: (13%)
- Subjects (%) with at least one Treatment-Emergent AE: Dyspepsia [3, 6]: (13%)
- Subjects (%) with at least one Treatment-Emergent AE: Headache [3, 6]: (13%)
- Subjects (%) with at least one Treatment-Emergent AE: Procedural pain [3, 6]: (50%)
- Subjects (%) with at least one Treatment-Emergent AE: Upper respiratory tract infection [3, 6]: (13%)
- Number of Subjects with at least one Treatment-Emergent AE: All TEAEs [3, 7]: 5
- Number of Subjects with at least one Treatment-Emergent AE: Back pain [3, 7]: 1
- Number of Subjects with at least one Treatment-Emergent AE: Dizziness [3, 7]: 1
- Number of Subjects with at least one Treatment-Emergent AE: Headache [3, 7]: 3
- Subjects (%) with at least one Treatment-Emergent AE: All TEAEs [3, 7]: (71%)
- Subjects (%) with at least one Treatment-Emergent AE: Back pain [3, 7]: (14%)
- Subjects (%) with at least one Treatment-Emergent AE: Dizziness [3, 7]: (14%)
- Subjects (%) with at least one Treatment-Emergent AE: Headache [3, 7]: (43%)
- Number of Subjects with at least one Treatment-Emergent AE: All TEAEs [3, 8]: 6
- Number of Subjects with at least one Treatment-Emergent AE: Back pain [3, 8]: 1
- Number of Subjects with at least one Treatment-Emergent AE: Catheter site phlebitis [3, 8]: 1
- Number of Subjects with at least one Treatment-Emergent AE: Dizziness [3, 8]: 1
- Number of Subjects with at least one Treatment-Emergent AE: Dyspepsia [3, 8]: 1
- Number of Subjects with at least one Treatment-Emergent AE: Headache [3, 8]: 4
- Number of Subjects with at least one Treatment-Emergent AE: Nausea [3, 8]: 1
- Number of Subjects with at least one Treatment-Emergent AE: Procedural pain [3, 8]: 2
- Number of Subjects with at least one Treatment-Emergent AE: Upper respiratory tract infection [3, 8]: 2
- Number of Subjects with at least one Treatment-Emergent AE: Vomiting [3, 8]: 2
- Subjects (%) with at least one Treatment-Emergent AE: All TEAEs [3, 8]: (75%)
- Subjects (%) with at least one Treatment-Emergent AE: Back pain [3, 8]: (13%)
- Subjects (%) with at least one Treatment-Emergent AE: Catheter site phlebitis [3, 8]: (13%)
- Subjects (%) with at least one Treatment-Emergent AE: Dizziness [3, 8]: (13%)
- Subjects (%) with at least one Treatment-Emergent AE: Dyspepsia [3, 8]: (13%)
- Subjects (%) with at least one Treatment-Emergent AE: Headache [3, 8]: (50%)
- Subjects (%) with at least one Treatment-Emergent AE: Nausea [3, 8]: (13%)
- Subjects (%) with at least one Treatment-Emergent AE: Procedural pain [3, 8]: (25%)
- Subjects (%) with at least one Treatment-Emergent AE: Upper respiratory tract infection [3, 8]: (25%)
- Subjects (%) with at least one Treatment-Emergent AE: Vomiting [3, 8]: (25%)
- Treatment-emergent AEs, % of subjects ([3]; MAD, CT1812 (of 31 subjects)): 81%
- Treatment-emergent AEs, number of subjects ([3]; MAD, CT1812 (of 31 subjects)): 25
- Number of Subjects with at least one Treatment-Emergent AE: All TEAEs ([3]; MAD, Total Active (n = 31)): 25
- Number of Subjects with at least one Treatment-Emergent AE: Back pain ([3]; MAD, Total Active (n = 31)): 2
- Number of Subjects with at least one Treatment-Emergent AE: Catheter site phlebitis ([3]; MAD, Total Active (n = 31)): 2
- Number of Subjects with at least one Treatment-Emergent AE: Dizziness ([3]; MAD, Total Active (n = 31)): 3
- Number of Subjects with at least one Treatment-Emergent AE: Dyspepsia ([3]; MAD, Total Active (n = 31)): 3
- Number of Subjects with at least one Treatment-Emergent AE: Headache ([3]; MAD, Total Active (n = 31)): 10
- Number of Subjects with at least one Treatment-Emergent AE: Nausea ([3]; MAD, Total Active (n = 31)): 2
- Number of Subjects with at least one Treatment-Emergent AE: Procedural pain ([3]; MAD, Total Active (n = 31)): 6
- Number of Subjects with at least one Treatment-Emergent AE: Upper respiratory tract infection ([3]; MAD, Total Active (n = 31)): 8
- Number of Subjects with at least one Treatment-Emergent AE: Vomiting ([3]; MAD, Total Active (n = 31)): 2
- Subjects (%) with at least one Treatment-Emergent AE: All TEAEs ([3]; MAD, Total Active (n = 31)): (%81)
- Subjects (%) with at least one Treatment-Emergent AE: Back pain ([3]; MAD, Total Active (n = 31)): (6%)
- Subjects (%) with at least one Treatment-Emergent AE: Catheter site phlebitis ([3]; MAD, Total Active (n = 31)): (6%)
- Subjects (%) with at least one Treatment-Emergent AE: Dizziness ([3]; MAD, Total Active (n = 31)): (10%)
- Subjects (%) with at least one Treatment-Emergent AE: Dyspepsia ([3]; MAD, Total Active (n = 31)): (10%)
- Subjects (%) with at least one Treatment-Emergent AE: Headache ([3]; MAD, Total Active (n = 31)): (32%)
- Subjects (%) with at least one Treatment-Emergent AE: Nausea ([3]; MAD, Total Active (n = 31)): (6%)
- Subjects (%) with at least one Treatment-Emergent AE: Procedural pain ([3]; MAD, Total Active (n = 31)): (19%)
- Subjects (%) with at least one Treatment-Emergent AE: Upper respiratory tract infection ([3]; MAD, Total Active (n = 31)): (26%)
- Subjects (%) with at least one Treatment-Emergent AE: Vomiting ([3]; MAD, Total Active (n = 31)): (6%)
- rash ([3]; MAD, improved after discontinuing CT1812): One subject developed a rash
- increase in liver function tests ([3]; four subjects in MAD study (including one on placebo)): below 3 × the upper limit of normal
- displacement of Aβ oligomers from neuronal/synaptic receptors [4]: displaces amyloid beta (Aβ) oligomers from neuronal receptors; also recorded: displace oligomers from synaptic receptor sites; also recorded: prevents and displaces binding of Aβ oligomers to neurons
